Measured values taken from publication PMC5206489 (Journal of chemical information and modeling, 2016).

Assays:
HIV-1YU2 = details: read-out: IC50 (HIV-1YU2); viral infectivity, HIV-1YU2 strain; cited from earlier work
core monomeric gp120 = details: binding affinity on gp120 core monomer; cited from earlier work
BG505 SOSIP.664 = assay: Competition ELISA, BG505 SOSIP.664 binding to CD4IgG2; design: species or system HIV-1; details: full dose response not achieved owing to solubility limits

SMILES	IC50 (HIV-1YU2)	Kd (core monomeric gp120)	inhibition of SOSIP trimer protein binding to sCD4 (in words) (BG505 SOSIP.664)
CC1(C)CC(NC(=O)C(=O)Nc2ccc(Cl)cc2)CC(C)(C)N1 [compound 1]	> 100 µM	3.7 µM	weaker inhibition
CN(Cc1ccc2c(c1)C[C@H](CN=C(N)N)[C@H]2NC(=O)C(=O)Nc1ccc(Cl)c(F)c1)C(=N)N [compound 5]	0.8 ± 0.1 µM	0.1 µM	
